Laboratory results taken from patent US20060269605A1, “Multilayer pharmaceutical dosage form containing a substance that acts in a modulatory manner with regard to the release of active substances” (Roehm Gmbh & Co. KG, priority 2003, published 2006).

Assay: active ingredient delivery in PhEur phosphate buffer of pH 6.8 in a USP dissolution tester
Format: physicochemical
Details: modulator as core of theophylline pellets coated with EUDRAGIT RS, no inner controlling layer, versus microcrystalline cellulose core (Example 5)
With `O=C([O-])CCC(=O)[O-].[Na+].[Na+]` [sodium succinate] the “effect of the substance having a modulating effect on active ingredient delivery” value (“effect” for short) was “accelerating effect”. For `O=C(O)CC(O)(CC(=O)O)C(=O)O` [citric acid], the “effect” value was “accelerating effect”. For `[Cl-].[Na+]` [sodium chloride], the “effect” value was “reducing effect”. In the case of `CC(=O)[O-].[Na+]` [sodium acetate], the “effect” value is reported as “accelerating effect”.
